Assays:
[1] = target: T1, Polyunsaturated fatty acid 5-lipoxygenase (Homo sapiens, UniProt P09917); experiment: Inhibition of human recombinant 5-LOX expressed in insect cells assessed as decrease in production of 5-HPETE and 5-HETE using arachidonic acid as substrate preincubated for 5 mins followed by substrate addition measured after 20 mins in dark by ferric ion oxidation-xylenol orange method; settings: read-out: IC50
T1 sequence (P09917 whole entry): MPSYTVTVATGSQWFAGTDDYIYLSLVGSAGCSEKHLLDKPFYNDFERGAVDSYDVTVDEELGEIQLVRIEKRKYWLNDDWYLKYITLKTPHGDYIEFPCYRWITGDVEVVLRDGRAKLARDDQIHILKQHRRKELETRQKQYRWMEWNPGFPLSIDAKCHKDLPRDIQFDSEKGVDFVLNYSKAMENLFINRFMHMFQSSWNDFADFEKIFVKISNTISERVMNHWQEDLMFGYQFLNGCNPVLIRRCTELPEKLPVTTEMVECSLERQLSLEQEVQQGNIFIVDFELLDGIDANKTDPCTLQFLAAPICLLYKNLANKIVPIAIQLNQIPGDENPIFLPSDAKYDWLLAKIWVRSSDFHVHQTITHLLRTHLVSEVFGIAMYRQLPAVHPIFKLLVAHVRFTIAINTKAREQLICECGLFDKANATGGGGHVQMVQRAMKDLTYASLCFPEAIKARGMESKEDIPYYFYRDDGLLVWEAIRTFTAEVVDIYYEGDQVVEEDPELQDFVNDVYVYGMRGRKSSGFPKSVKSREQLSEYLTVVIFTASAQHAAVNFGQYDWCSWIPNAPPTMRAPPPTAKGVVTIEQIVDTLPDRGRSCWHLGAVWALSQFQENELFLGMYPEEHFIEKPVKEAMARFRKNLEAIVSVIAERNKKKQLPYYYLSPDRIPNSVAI

[2] = target: T2, Polyunsaturated fatty acid 5-lipoxygenase (Homo sapiens) (UniProt P09917); experiment: Inhibition of human recombinant 5-LOX expressed in insect cells assessed residual activity using arachidonic acid at 42 uM as substrate preincubated for 5 mins followed by substrate addition measured after 20 mins in dark by ferric ion oxidation-xylenol orange method relative to control
T2 sequence (whole entry): T1 sequence (P09917 whole entry)

[3] = target: T3, Polyunsaturated fatty acid lipoxygenase ALOX15B (Homo sapiens, UniProt O15296); experiment: (§1) Inhibition of human recombinant N-terminal His-tagged 15-LOX2 expressed in Escherichia coli using arachidonic acid as substrate preincubated for 5 mins followed by substrate addition measured after 20 mins in dark by ferric ion oxidation-xylenol orange assay; settings: read-out: IC50
T3 sequence (O15296 whole entry): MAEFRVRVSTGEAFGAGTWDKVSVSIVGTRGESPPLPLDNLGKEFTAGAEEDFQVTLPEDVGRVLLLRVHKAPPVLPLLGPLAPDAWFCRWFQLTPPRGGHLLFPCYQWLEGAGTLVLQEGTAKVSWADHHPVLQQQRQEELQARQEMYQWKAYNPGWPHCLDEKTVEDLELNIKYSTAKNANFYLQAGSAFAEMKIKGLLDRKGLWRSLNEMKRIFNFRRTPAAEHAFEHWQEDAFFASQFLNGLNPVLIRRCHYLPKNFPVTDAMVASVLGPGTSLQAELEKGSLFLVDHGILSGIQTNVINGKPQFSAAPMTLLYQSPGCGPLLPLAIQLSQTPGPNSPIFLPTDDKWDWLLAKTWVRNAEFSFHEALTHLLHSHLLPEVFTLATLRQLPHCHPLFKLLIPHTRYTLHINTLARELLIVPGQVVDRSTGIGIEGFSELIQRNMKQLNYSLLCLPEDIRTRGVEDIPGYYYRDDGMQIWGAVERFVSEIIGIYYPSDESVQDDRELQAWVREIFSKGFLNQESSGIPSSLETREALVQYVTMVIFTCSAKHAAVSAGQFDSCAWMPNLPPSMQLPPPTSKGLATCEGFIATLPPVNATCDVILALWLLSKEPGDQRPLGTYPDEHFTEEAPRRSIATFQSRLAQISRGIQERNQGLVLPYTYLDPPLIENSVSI

[4] = target: T4, Polyunsaturated fatty acid lipoxygenase ALOX15B (Homo sapiens) (UniProt O15296); experiment: as §1, with “coli assessed as residual activity at 42 uM” for “coli”, “assay relative to control” for “assay”
T4 sequence (whole entry): T3 sequence (O15296 whole entry)

[5] = target: T5, Prostaglandin G/H synthase 1 (Ovis aries, UniProt P05979);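 note: recombinant ovine COX1 enzyme, PGE2 formed from arachidonic acid quantified by LC-MS, 10 min inhibitor preincubation then 45 min reaction, inhibition seen as reduced PGE2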
T5 sequence (P05979 whole entry): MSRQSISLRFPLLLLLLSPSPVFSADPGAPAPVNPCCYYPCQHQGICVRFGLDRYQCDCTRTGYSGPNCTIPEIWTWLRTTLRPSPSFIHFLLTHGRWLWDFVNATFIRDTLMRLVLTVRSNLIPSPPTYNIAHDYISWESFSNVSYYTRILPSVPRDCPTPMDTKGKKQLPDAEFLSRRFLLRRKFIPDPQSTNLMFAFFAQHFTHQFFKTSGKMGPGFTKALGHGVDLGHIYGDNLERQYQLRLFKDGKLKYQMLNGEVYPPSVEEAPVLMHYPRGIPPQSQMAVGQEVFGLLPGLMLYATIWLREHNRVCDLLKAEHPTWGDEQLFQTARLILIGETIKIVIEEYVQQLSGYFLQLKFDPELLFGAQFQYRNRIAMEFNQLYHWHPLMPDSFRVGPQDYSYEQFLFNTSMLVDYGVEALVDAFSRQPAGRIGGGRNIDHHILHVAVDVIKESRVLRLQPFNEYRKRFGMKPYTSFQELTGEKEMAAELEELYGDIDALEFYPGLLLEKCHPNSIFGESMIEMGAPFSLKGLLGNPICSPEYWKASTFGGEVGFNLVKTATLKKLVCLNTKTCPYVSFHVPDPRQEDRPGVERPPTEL
Description: Inhibition of ovine recombinant COX1 assessed as decrease in formation of PGE2 using arachidonic acid as substrate preincubated for 10 mins followed by substrate addition measured after 45 mins by LC-MS analysis

[6] = target: T6, Prostaglandin G/H synthase 2 (Homo sapiens, UniProt P35354); experiment: biochemical; format: cell-based, Sf21; settings: read-out: IC50;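 note: recombinant enzyme produced in baculovirus-infected Sf21 cells, arachidonic acid substrate, PGE2 output quantified by LC-MS after 45 min, compounds preincubated 10 min beforehand, lower PGE2 means inhibition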
T6 sequence (P35354 whole entry): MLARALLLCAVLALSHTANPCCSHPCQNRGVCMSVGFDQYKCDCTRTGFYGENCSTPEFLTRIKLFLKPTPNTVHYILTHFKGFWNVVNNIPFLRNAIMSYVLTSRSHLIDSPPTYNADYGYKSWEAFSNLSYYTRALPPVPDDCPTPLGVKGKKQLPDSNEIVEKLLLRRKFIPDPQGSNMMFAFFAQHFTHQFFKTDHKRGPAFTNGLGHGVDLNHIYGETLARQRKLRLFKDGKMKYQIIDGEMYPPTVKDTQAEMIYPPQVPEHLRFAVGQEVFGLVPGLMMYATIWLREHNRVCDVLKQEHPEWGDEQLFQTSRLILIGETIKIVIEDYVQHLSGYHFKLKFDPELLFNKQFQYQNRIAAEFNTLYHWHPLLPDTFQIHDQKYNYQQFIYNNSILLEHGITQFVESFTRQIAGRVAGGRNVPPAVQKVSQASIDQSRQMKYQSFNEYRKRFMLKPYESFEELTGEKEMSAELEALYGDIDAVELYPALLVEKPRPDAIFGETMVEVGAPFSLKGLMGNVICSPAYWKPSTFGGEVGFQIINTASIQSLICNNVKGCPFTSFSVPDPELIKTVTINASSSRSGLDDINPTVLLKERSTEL
Description: Inhibition of human recombinant COX2 expressed in baculovirus infected sf21 cells assessed as decrease in PGE2 formation using arachidonic acid as substrate preincubated for 10 mins followed by substrate addition measured after 45 mins by LC-MS analysis

For `CC1(C)[C@@H](O)CC[C@]2(C)[C@H]3C(=O)C=C4[C@@H]5C[C@@](C)(C(=O)O)CC[C@]5(C)CC[C@@]4(C)[C@]3(C)CC[C@@H]12` [ENOXOLONE], the IC50 [1] was 24.8 µM, the Activity [2] was 28.3% and the IC50 [3] was > 40 µM. The Activity [4] was 98.6%, the IC50 [5] was “Not Active” and the IC50 [6] was > 40 µM.
